Assay results taken from ChEMBL document CHEMBL5291721, “A preclinical secondary pharmacology resource illuminates target-adverse drug reaction associations of marketed drugs” (Nat Commun, 2023).

What was measured:
[1] = molecular target: T1, Glucocorticoid receptor (Homo sapiens, UniProt P04150); assay type: functional
T1 sequence (P04150 whole entry): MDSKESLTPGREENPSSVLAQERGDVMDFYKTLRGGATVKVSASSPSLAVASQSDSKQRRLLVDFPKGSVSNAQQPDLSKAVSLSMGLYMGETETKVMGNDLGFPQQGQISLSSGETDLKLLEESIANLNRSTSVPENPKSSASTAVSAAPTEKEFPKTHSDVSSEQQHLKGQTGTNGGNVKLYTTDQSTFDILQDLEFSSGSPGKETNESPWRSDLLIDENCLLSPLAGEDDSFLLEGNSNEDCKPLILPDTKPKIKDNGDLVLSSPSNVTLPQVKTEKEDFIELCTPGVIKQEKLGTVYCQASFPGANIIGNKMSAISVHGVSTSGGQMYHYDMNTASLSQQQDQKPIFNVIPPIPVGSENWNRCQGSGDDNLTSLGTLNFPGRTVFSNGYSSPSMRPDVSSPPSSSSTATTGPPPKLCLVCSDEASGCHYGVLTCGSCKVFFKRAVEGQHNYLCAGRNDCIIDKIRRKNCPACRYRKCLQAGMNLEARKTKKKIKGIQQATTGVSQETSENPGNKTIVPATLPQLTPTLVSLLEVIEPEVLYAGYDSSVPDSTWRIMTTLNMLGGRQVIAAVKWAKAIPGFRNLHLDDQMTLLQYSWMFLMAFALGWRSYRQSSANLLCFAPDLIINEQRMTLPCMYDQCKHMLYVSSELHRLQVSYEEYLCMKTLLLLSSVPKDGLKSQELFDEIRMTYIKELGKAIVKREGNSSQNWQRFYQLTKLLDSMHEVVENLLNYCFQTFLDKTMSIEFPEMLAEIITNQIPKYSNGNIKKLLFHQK

[2] = molecular target: T2, Alpha-2A adrenergic receptor (Homo sapiens, UniProt P08913)
T2 sequence (P08913 whole entry): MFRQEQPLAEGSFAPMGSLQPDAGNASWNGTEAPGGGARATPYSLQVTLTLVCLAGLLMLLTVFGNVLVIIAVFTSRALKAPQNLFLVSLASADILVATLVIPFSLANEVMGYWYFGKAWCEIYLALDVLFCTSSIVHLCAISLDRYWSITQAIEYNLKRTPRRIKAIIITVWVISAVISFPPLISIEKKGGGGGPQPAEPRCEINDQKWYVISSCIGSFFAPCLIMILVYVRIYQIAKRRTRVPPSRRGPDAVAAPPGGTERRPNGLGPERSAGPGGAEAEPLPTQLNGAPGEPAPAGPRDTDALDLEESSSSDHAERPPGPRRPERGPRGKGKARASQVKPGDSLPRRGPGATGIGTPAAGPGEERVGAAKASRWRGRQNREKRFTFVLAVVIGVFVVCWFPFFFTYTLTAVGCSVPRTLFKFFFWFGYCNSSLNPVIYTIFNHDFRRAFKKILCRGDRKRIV

[3] = molecular target: T3, D(4) dopamine receptor (Homo sapiens, UniProt P21917)
T3 sequence (P21917 whole entry): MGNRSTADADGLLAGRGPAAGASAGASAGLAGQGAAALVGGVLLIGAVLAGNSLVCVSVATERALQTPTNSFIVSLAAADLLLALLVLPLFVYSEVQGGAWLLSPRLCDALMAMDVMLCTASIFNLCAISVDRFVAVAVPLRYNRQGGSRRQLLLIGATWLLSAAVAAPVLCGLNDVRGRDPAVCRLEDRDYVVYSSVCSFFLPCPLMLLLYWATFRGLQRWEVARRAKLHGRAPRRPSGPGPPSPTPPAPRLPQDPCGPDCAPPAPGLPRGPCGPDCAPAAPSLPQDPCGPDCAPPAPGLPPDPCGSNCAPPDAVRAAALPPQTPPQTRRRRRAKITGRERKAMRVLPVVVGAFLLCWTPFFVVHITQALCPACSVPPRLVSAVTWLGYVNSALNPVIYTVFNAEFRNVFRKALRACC

[4] = molecular target: Beta-3 adrenergic receptor (Homo sapiens, UniProt P13945)
[5] = molecular target: T4, Endothelin receptor type B (Homo sapiens, UniProt P24530)
T4 sequence (P24530 whole entry): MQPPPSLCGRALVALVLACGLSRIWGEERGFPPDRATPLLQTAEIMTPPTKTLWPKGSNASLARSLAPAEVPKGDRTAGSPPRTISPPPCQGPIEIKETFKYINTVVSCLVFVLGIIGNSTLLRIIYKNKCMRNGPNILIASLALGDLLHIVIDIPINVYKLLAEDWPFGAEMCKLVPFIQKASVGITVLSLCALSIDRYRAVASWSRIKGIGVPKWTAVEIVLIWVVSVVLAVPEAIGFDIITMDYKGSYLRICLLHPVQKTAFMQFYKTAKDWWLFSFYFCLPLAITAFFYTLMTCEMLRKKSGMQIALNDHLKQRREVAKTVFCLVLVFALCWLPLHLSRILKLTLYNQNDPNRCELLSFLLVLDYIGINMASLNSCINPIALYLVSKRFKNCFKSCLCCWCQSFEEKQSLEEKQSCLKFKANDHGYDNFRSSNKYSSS

[6] = molecular target: T5, Neuropeptide Y receptor type 2 (Homo sapiens, UniProt P49146)
T5 sequence (P49146 whole entry): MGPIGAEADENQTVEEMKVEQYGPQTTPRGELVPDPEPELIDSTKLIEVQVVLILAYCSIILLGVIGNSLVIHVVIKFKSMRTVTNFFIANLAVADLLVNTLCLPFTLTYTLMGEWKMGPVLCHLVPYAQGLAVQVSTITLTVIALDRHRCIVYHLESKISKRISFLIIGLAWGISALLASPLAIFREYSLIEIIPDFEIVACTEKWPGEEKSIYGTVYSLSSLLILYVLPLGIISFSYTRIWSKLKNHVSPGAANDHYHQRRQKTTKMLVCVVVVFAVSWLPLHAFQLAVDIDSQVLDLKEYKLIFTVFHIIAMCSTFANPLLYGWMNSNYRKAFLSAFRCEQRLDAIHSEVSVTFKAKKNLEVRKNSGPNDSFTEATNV

[7] = molecular target: Receptor tyrosine-protein kinase erbB-2 (Homo sapiens, UniProt P04626); assay type: functional
Note: assay procedure not described here.

Beta-3 adrenergic receptor, sequence (P13945 whole entry): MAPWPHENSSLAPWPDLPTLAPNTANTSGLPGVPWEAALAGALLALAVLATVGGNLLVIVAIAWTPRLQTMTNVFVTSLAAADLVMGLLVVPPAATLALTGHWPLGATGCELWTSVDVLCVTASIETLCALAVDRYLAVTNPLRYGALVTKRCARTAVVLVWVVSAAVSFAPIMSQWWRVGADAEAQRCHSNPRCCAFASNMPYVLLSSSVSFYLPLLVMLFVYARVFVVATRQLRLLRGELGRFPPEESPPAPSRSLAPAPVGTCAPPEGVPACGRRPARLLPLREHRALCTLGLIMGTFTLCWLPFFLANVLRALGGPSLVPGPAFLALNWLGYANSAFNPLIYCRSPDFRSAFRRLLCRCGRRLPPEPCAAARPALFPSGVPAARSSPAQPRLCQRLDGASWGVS
Receptor tyrosine-protein kinase erbB-2, sequence (P04626 whole entry): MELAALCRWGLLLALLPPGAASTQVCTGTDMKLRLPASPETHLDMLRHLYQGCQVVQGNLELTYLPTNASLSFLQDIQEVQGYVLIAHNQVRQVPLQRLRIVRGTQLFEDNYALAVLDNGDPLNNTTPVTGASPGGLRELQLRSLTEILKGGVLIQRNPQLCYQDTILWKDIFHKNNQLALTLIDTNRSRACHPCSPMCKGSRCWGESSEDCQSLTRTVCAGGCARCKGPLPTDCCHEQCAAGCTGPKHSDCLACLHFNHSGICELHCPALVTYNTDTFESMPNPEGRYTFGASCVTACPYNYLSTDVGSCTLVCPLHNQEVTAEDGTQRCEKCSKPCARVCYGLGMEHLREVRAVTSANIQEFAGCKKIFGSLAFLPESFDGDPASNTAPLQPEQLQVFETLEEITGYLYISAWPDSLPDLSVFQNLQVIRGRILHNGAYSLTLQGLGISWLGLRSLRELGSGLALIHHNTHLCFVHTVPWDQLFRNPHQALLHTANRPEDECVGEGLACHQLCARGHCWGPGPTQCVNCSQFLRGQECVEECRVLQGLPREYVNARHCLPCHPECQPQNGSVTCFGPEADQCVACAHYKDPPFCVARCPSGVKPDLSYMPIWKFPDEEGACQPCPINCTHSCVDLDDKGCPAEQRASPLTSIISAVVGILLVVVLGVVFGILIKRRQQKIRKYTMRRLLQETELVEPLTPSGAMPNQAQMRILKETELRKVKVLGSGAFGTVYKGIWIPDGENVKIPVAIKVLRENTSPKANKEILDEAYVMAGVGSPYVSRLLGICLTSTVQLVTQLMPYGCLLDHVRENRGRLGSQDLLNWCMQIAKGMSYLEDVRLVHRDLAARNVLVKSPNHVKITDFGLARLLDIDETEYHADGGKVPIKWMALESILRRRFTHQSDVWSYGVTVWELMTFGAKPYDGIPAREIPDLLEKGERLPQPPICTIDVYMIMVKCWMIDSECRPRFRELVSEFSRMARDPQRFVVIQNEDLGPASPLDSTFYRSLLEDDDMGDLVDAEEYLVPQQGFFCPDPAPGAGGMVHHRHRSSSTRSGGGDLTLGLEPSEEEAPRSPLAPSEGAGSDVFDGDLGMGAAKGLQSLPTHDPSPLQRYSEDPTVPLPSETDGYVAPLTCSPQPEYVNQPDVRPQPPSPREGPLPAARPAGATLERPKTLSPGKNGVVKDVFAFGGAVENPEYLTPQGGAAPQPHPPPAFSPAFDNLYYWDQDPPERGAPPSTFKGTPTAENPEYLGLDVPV

Structure (SMILES) | AC50 [1] | AC50 [2] | AC50 [3] | AC50 [4] | AC50 [5] | AC50 [6] | AC50 [7]
CCOCC(O)COc1ccc(NC(=O)CC[S+](C)C)cc1 (stereo unspecified) | > 30 µM | – | – | – | – | – | –
CCOC(=O)[C@H](CCc1ccccc1)N[C@@H](C)C(=O)N1Cc2ccccc2C[C@H]1C(=O)O | – | > 10 µM | > 10 µM | > 30 µM | > 30 µM | > 30 µM | –
CCC[C@@]1(CCc2ccccc2)CC(O)=C([C@H](CC)c2cccc(NS(=O)(=O)c3ccc(C(F)(F)F)cn3)c2)C(=O)O1 | > 30 µM | – | – | – | – | – | > 30 µM
CN(C)CCC=C1c2ccccc2CCc2ccccc21 [AMITRIPTYLINE] | – | 2.92 µM | 0.819 µM | > 30 µM | > 30 µM | > 30 µM | –
CN1CC2c3ccccc3Oc3ccc(Cl)cc3C2C1 (stereo unspecified) [ASENAPINE] | > 30 µM | – | – | – | – | – | > 30 µM
CC(=O)Oc1ccccc1C(=O)O [ASPIRIN] | – | > 10 µM | > 10 µM | > 30 µM | > 30 µM | > 30 µM | –
Cn1cnc2c(F)c(Nc3ccc(Br)cc3F)c(C(=O)NOCCO)cc21 [BINIMETINIB] | > 30 µM | – | – | – | – | – | > 30 µM
C[C@H](CS)C(=O)N1CCC[C@H]1C(=O)O [CAPTOPRIL] | – | > 10 µM | – | – | – | – | –
C[C@H](CCC(=O)O)[C@H]1CC[C@H]2[C@@H]3[C@H](O)C[C@@H]4C[C@H](O)CC[C@]4(C)[C@H]3CC[C@]12C [CHENODIOL] | – | – | – | – | – | – | > 30 µM
CN(C)CCCC1(c2ccc(F)cc2)OCc2cc(C#N)ccc21 (stereo unspecified) [CITALOPRAM] | – | > 10 µM | > 10 µM | > 30 µM | > 30 µM | > 30 µM | –
O=C(O)[C@H]1/C(=C/CO)O[C@@H]2CC(=O)N21 [CLAVULANIC ACID] | > 30 µM | – | – | – | – | – | –
CC(C)/N=c1\cc2n(-c3ccc(Cl)cc3)c3ccccc3nc-2cc1Nc1ccc(Cl)cc1 [CLOFAZIMINE] | > 30 µM | – | – | – | – | – | –
C[C@H](Nc1ncnc2[nH]cnc12)c1cc2cccc(Cl)c2c(=O)n1-c1ccccc1 [DUVELISIB] | > 30 µM | – | – | – | – | – | > 30 µM
C[C@]12CCC(=O)C=C1CC[C@H]1[C@@H]3CC[C@](O)(C(=O)CO)[C@@]3(C)C[C@H](O)[C@@]12F [FLUDROCORTISONE] | – | > 10 µM | – | > 30 µM | > 30 µM | > 30 µM | –
NCC1(CC(=O)O)CCCCC1 [GABAPENTIN] | > 30 µM | > 10 µM | > 10 µM | > 30 µM | > 30 µM | > 30 µM | > 30 µM
OCCOCCN1CCN(C(c2ccccc2)c2ccc(Cl)cc2)CC1 (stereo unspecified) [HYDROXYZINE] | – | 12.8 µM | 8.54 µM | > 30 µM | > 30 µM | > 30 µM | –
C[C@@H](O)[C@H]1C(=O)N2C(C(=O)O)=C(SCCN=CN)C[C@H]12 [IMIPENEM ANHYDROUS] | > 300 µM | – | – | – | – | – | > 300 µM
Nc1nnc(-c2cccc(Cl)c2Cl)c(N)n1 [LAMOTRIGINE] | – | > 10 µM | > 10 µM | > 30 µM | > 30 µM | > 30 µM | –
O=C1[C@@H]2[C@H]3CC[C@H](C3)[C@@H]2C(=O)N1C[C@@H]1CCCC[C@H]1CN1CCN(c2nsc3ccccc23)CC1 [LURASIDONE] | > 10 µM | – | – | – | – | – | > 30 µM
CO[C@@H]1[C@@H](OC(N)=O)[C@@H](O)[C@H](Oc2ccc3c(O)c(NC(=O)c4ccc(O)c(CC=C(C)C)c4)c(=O)oc3c2C)OC1(C)C [NOVOBIOCIN] | > 30 µM | – | – | – | – | – | > 30 µM
CC(=O)SCC(Cc1ccccc1)C(=O)NCC(=O)OCc1ccccc1 (stereo unspecified) [RACECADOTRIL] | 6.3 µM | > 10 µM | – | > 30 µM | – | – | –
COc1cc2c(cc1OC)C1CC(=O)C(CC(C)C)CN1CC2 (stereo unspecified) [TETRABENAZINE] | – | – | – | – | – | – | > 30 µM
CC(C)(CO)c1cc2cc(NC(=O)C3(c4ccc5c(c4)OC(F)(F)O5)CC3)c(F)cc2n1C[C@@H](O)CO [TEZACAFTOR] | > 30 µM | – | – | – | – | – | –
Cc1c(C)c2c(c(C)c1O)CCC(C)(COc1ccc(CC3SC(=O)NC3=O)cc1)O2 (stereo unspecified) [TROGLITAZONE] | – | – | – | > 30 µM | > 30 µM | > 30 µM | –
c1cnc2cc3c(cc2n1)[C@@H]1CNC[C@H]3C1 [VARENICLINE] | – | – | – | – | – | – | > 30 µM
Nc1c2c(nc3ccccc13)CCCC2O (stereo unspecified) [VELNACRINE] | 14 µM | – | – | – | – | – | > 30 µM
